Experimental data taken from patent publication US10981926B2 (Janssen Pharmaceutica NV, priority 2016, dated 2021).

What was measured:
[1] = biological target: T1, wild-type Androgen Receptor (AR-wt) (Homo sapiens (Human), UniProt P10275); assay: LNCaP-AR-wt AG reporter assay (agonist mode); type: cell-based; conditions: for EC50 / LNCaP-AR-wt AG pEC50: agonist mode, pEC50 = −Log10(EC50 in Molar); for EC50: read-out: LNCaP-AR-wt AG pEC50 (converted); for Emax: read-out: LNCaP-AR-wt AG MAX % Stim
[2] = biological target: T2, F876L mutant Androgen Receptor (AR-F876L) (Homo sapiens (Human), UniProt P10275, F877L); assay: LNCaP-AR-F876L ANT reporter assay (antagonist mode); type: cell-based; conditions: for IC50 / LNCaP-AR-F876L ANT pIC50: antagonist mode, pIC50 = −Log10(IC50 in Molar); for IC50: read-out: LNCaP-AR-F876L ANT pIC50 (converted); for Emax: read-out: LNCaP-AR-F876L ANT MAX % Inh
rGABA-gated Cl− channel = assay: GABA-Gated Cl Channel Antagonist Radioligand Binding Assay; set-up: species or system rat; conditions: 10 μM single point, [35S]-TBPS, cerebral cortex membrane homogenates
Summary of the method: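 Values give percent inhibition of control specific […] (3 nM) binding at a single 10 μM compound concentration. Cerebral cortex membranes, 120 min, 22° C, phosphate buffer pH 7.4 with 500 mM NaCl; 20 μM picrotoxinin sets nonspecific binding; filtration and scintillation read-out.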

[3] = biological target: T1, wild-type Androgen Receptor (AR-wt); assay: LNCaP-AR-wt ANT reporter assay (antagonist mode); type: cell-based; conditions: for IC50 / LNCaP-AR-wt ANT pIC50: antagonist mode, pIC50 = −Log10(IC50 in Molar); for IC50: read-out: LNCaP-AR-wt ANT pIC50 (converted); for Emax: read-out: LNCaP-AR-wt ANT MAX % Inh
[4] = biological target: T2, F876L mutant Androgen Receptor (AR-F876L); assay: LNCaP-AR-F876L AG reporter assay (agonist mode); type: cell-based; conditions: for EC50 / LNCaP-AR-F876L AG pEC50: agonist mode, pEC50 = −Log10(EC50 in Molar); for EC50: read-out: LNCaP-AR-F876L AG pEC50 (converted); for Emax: read-out: LNCaP-AR-F876L AG MAX % Stim
[5] = maximum % stimulation (agonist response) over the tested concentration range
[6] = maximum % inhibition of R1881 control response over the tested concentration range

T1 sequence (P10275 whole entry): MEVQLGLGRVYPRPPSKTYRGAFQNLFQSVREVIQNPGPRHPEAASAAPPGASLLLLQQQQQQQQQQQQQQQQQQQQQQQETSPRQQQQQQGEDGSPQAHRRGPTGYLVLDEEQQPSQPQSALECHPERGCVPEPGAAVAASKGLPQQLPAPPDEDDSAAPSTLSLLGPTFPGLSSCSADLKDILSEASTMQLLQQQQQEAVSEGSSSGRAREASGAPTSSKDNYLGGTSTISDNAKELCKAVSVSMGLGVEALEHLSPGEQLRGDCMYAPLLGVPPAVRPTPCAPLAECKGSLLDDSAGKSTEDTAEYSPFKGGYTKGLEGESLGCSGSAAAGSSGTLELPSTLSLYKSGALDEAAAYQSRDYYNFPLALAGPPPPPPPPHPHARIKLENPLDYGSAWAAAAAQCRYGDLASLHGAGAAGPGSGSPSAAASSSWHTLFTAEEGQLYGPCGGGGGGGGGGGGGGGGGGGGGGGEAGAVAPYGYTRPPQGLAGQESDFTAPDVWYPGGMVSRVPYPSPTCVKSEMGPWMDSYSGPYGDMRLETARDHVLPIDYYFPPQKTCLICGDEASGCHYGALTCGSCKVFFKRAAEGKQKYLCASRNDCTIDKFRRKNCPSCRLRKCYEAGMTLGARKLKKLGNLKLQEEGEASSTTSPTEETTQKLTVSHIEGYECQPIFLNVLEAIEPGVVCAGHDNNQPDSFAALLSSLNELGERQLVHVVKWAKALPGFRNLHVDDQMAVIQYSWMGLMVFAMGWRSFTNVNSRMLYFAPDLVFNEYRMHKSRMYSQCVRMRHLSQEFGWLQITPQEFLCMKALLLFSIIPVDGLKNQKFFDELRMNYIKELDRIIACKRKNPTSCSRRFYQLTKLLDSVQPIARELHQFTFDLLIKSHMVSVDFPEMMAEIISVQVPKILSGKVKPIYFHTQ
T2 sequence (P10275 whole entry F877L): as the sequence (P10275 whole entry) above, with F877L counted along it

| SMILES | EC50 [1] | Emax [1, 5] | IC50 [2] | Emax [2, 6] | rGABA-gated Cl− channel % inh @10 μM (rGABA-gated Cl− channel) | IC50 [3] | Emax [3, 6] | EC50 [4] | Emax [4, 5] | LNCaP-AR-F876L ANT pIC50 [2] | LNCaP-AR-wt ANT pIC50 [3] | LNCaP-AR-wt AG pEC50 [1] | LNCaP-AR-wt AG MAX % Stim [1, 5] | LNCaP-AR-F876L ANT MAX % Inh [2, 6] | LNCaP-AR-wt ANT MAX % Inh [3, 6] | LNCaP-AR-F876L AG pEC50 [4] | LNCaP-AR-F876L AG MAX % Stim [4, 5] |
| --- | --- | --- | --- | --- | --- | --- | --- | --- | --- | --- | --- | --- | --- | --- | --- | --- | --- |
| N#Cc1ncc(N2C(=O)C3(CCC3)N(c3ccc(OC4CCN(CCF)CC4)cc3)C2=S)cc1C(F)(F)F [Cpd 77, 5-[8-[4-[[1-(2-fluoroethyl)-4-piperidyl]oxy]phenyl]-5-oxo-7-thioxo-6,8-diazaspiro[3.4]octan-6-yl]-3-(trifluoromethyl)pyridine-2-carbonitrile] | > 15100 nM | 0.2% | 30.9 nM | 100% | 53.8% | 37.2 nM | 102% | > 15100 nM | 0.3% | – | – | – | – | – | – | – | – |
| Cc1cc(N2C(=O)C3(CCC3)N(c3ccc(OC4CCN(CCF)CC4)nc3)C2=S)cnc1C#N [Cpd 78, 5-[8-[6-[[1-(2-fluoroethyl)-4-piperidyl]oxy]-3-pyridyl]-5-oxo-7-thioxo-6,8-diazaspiro[3.4]octan-6-yl]-3-methyl-pyridine-2-carbonitrile] | > 15100 nM | 1.2% | 22.9 nM | 100% | 3.8% | 93.3 nM | 101% | > 15100 nM | 0% | – | – | – | – | – | – | – | – |
| N#Cc1ncc(N2C(=O)C3(CCC3)N(c3ccc(OC4CCN(CCO)CC4)nc3)C2=S)cc1Cl [Cpd 79, 3-chloro-5-[8-[6-[[1-(2-hydroxyethyl)-4-piperidyl]oxy]-3-pyridyl]-5-oxo-7-thioxo-6,8-diazaspiro[3.4]octan-6-yl]pyridine-2-carbonitrile] | > 15100 nM | 1.2% | 8.13 nM | 98.5% | 11.5% | 6.76 nM | 101% | > 15100 nM | 1.3% | – | – | – | – | – | – | – | – |
| CNC1CCC(Oc2ccc(N3C(=S)N(c4cnc(C#N)c(C(F)(F)F)c4)C(=O)C34CCC4)cc2)CC1 (stereo not drawn) [Cpd 80, 5-[8-[4-[4-(methylamino)cyclohexoxy]phenyl]-5-oxo-7-thioxo-6,8-diazaspiro[3.4]octan-6-yl]-3-(trifluoromethyl)pyridine-2-carbonitrile] | > 15100 nM | 0.6% | 11.2 nM | 100% | 33.7% | 25.1 nM | 102% | > 15100 nM | 0.1% | – | – | – | – | – | – | – | – |
| CN(C)C1CCC(Oc2ccc(N3C(=S)N(c4cnc(C#N)c(C(F)(F)F)c4)C(=O)C34CCC4)cc2)CC1 (stereo not drawn) [Cpd 81, 5-[8-[4-[4-(dimethylamino)cyclohexoxy]phenyl]-5-oxo-7-thioxo-6,8-diazaspiro[3.4]octan-6-yl]-3-(trifluoromethyl)pyridine-2-carbonitrile] | > 15100 nM | 0.4% | 17 nM | 101% | 28.8% | 28.2 nM | 102% | > 15100 nM | 0.1% | – | – | – | – | – | – | – | – |
| N#Cc1ncc(N2C(=O)C3(CCC3)N(c3ccc(OCCN4CCC5(CCOC5)CC4)cc3)C2=S)cc1C(F)(F)F [Cpd 82, 5-[8-[4-[2-(3-oxa-8-azaspiro[4.5]decan-8-yl)ethoxy]phenyl]-5-oxo-7-thioxo-6,8-diazaspiro[3.4]octan-6-yl]-3-(trifluoromethyl)pyridine-2-carbonitrile] | > 15100 nM | 0.4% | 100 nM | 97.5% | 36.7% | 155 nM | 98.7% | > 15100 nM | 0.8% | – | – | – | – | – | – | – | – |
| N#Cc1ncc(N2C(=O)C3(CCC3)N(c3ccc(OCCN4CC5(C4)CC(F)(F)C5)cc3)C2=S)cc1C(F)(F)F [Cpd 83, 5-[8-[4-[2-(2,2-difluoro-6-azaspiro[3.3]heptan-6-yl)ethoxy]phenyl]-5-oxo-7-thioxo-6,8-diazaspiro[3.4]octan-6-yl]-3-(trifluoromethyl)pyridine-2-carbonitrile] | > 15100 nM | -0.2% | 129 nM | 99% | 20.5% | 229 nM | 102% | > 15100 nM | 0.2% | – | – | – | – | – | – | – | – |
| CN1CC(Oc2ccc(N3C(=S)N(c4cnc(C#N)c(C(F)(F)F)c4)C(=O)C34CCC4)cc2)C1 [Cpd 84, 5-[8-[4-(1-methylazetidin-3-yl)oxyphenyl]-5-oxo-7-thioxo-6,8-diazaspiro[3.4]octan-6-yl]-3-(trifluoromethyl)pyridine-2-carbonitrile] | > 15100 nM | 0.2% | 81.3 nM | 101% | 21.9% | 525 nM | 101% | > 15100 nM | 0.1% | – | – | – | – | – | – | – | – |
| N#Cc1ncc(N2C(=O)C3(CCC3)N(c3ccc(OC4CC5(CNC5)C4)cc3)C2=S)cc1C(F)(F)F [Cpd 86, 5-[8-[4-(6-azaspiro[3.3]heptan-2-yloxy)phenyl]-5-oxo-7-thioxo-6,8-diazaspiro[3.4]octan-6-yl]-3-(trifluoromethyl)pyridine-2-carbonitrile] | > 15100 nM | 0% | 75.9 nM | 99.7% | 15.3% | 123 nM | 100% | > 15100 nM | 0.1% | – | – | – | – | – | – | – | – |
| Cc1cc(N2C(=O)C3(CCC3)N(c3ccc(OC4CCNCC4)nc3)C2=S)cnc1C#N [Cpd 87, 3-methyl-5-[5-oxo-8-[6-(4-piperidyloxy)-3-pyridyl]-7-thioxo-6,8-diazaspiro[3.4]octan-6-yl]pyridine-2-carbonitrile] | > 15100 nM | 0.1% | – | 100% | −14.8% | – | 101% | > 15100 nM | 0.1% | 7.09 | 6.92 | – | – | – | – | – | – |
| C=CCN1CCC(Oc2ccc(N3C(=S)N(c4cnc(C#N)c(C(F)(F)F)c4)C(=O)C34CCC4)cn2)CC1 [Cpd 88, 5-[8-[6-[(1-allyl-4-piperidyl)oxy]-3-pyridyl]-5-oxo-7-thioxo-6,8-diazaspiro[3.4]octan-6-yl]-3-(trifluoromethyl)pyridine-2-carbonitrile] | > 15100 nM | 0.4% | 33.1 nM | 99.5% | 49.7% | 74.1 nM | 102% | > 15100 nM | 0.4% | – | – | – | – | – | – | – | – |
| Cc1cc(N2C(=O)C3(CCC3)N(c3ccc(OC4CCN(CC#N)CC4)nc3)C2=S)cnc1C#N [Cpd 90, 5-[8-[6-[[1-(cyanomethyl)-4-piperidyl]oxy]-3-pyridyl]-5-oxo-7-thioxo-6,8-diazaspiro[3.4]octan-6-yl]-3-methyl-pyridine-2-carbonitrile] | > 15100 nM | 0.6% | 67.6 nM | 99.3% | 20.8% | 89.1 nM | 99.7% | > 15100 nM | 0.9% | – | – | – | – | – | – | – | – |
| CC1COC(COc2ccc(N3C(=S)N(c4cnc(C#N)c(C(F)(F)F)c4)C(=O)C34CCC4)cc2)CN1 [Cpd 91, (R,S),(R,S)-5-[8-[4-[(5-methylmorpholin-2-yl)methoxy]phenyl]-5-oxo-7-thioxo-6,8-diazaspiro[3.4]octan-6-yl]-3-(trifluoromethyl)pyridine-2-carbonitrile] | – | – | – | – | 36.7% | – | – | – | – | 7.49 | 7.33 | <4.82 | 0.6% | 98.6% | 98.3% | <4.82 | 0.4% |
| N#Cc1ncc(N2C(=O)C3(CCC3)N(c3ccc(OC4CC5CCC(N5)C4F)cc3)C2=S)cc1C(F)(F)F (stereo not drawn) [Cpd 93, 5-[8-[4-[(4-fluoro-8-azabicyclo[3.2.1]octan-3-yl)oxy]phenyl]-5-oxo-7-thioxo-6,8-diazaspiro[3.4]octan-6-yl]-3-(trifluoromethyl)pyridine-2-carbonitrile] | – | 0.5% | 45.7 nM | 102% | 74.4% | – | 105% | – | 0.2% | – | 6.77 | <4.82 | – | – | – | <4.82 | – |
| CN1C2CCC1C(F)C(Oc1ccc(N3C(=S)N(c4cnc(C#N)c(C(F)(F)F)c4)C(=O)C34CCC4)cc1)C2 (stereo not drawn) [Cpd 94, 5-[8-[4-[(4-fluoro-8-methyl-8-azabicyclo[3.2.1]octan-3-yl)oxy]phenyl]-5-oxo-7-thioxo-6,8-diazaspiro[3.4]octan-6-yl]-3-(trifluoromethyl)pyridine-2-carbonitrile] | – | 0.8% | 70.8 nM | 101% | 91.0% | – | 101% | – | 0.2% | – | 6.78 | <4.82 | – | – | – | <4.82 | – |
